Measured values reported in patent US8962677B2, “Methods of restoring cognitive ability using non-peptidic compounds” (Acumen Pharmaceuticals, Inc., priority 2007, dated 2015).

Experiments:
[1] = cited from earlier work
Aβ1-42 = Aβ1-42 (Homo sapiens, UniProt P05067); assay: FRET assay of Aβ1-42 oligomer (ADDL) assembly; assay type: biochemical; details: for IC50: FRET assay of Example 1, formation of neurotoxic ADDLs
Excerpt: Fluorescence (or Förster) Resonance Energy Transfer (FRET) is a distance-dependent, non-radiative transfer of energy in which the de-excitation of one fluorophore (donor) is coupled to excitation of another fluorophore (acceptor). FRET occurs if (1) the quantum of energy emitted by a donor fluorophore corresponds to an acceptor fluorophore's excitation energy, (2) the orientations of donor and acceptor transition dipoles are nearly parallel and (3) the donor fluorescent emission spectrum overlaps the acceptor absorption spectrum.
In this assay, Aβ1-42 oligomer formation is monitored by FRET using N-terminal conjugates of fluorescein-Aβ1-42 as both the donor and acceptor fluorophore (fluorescein-fluorescein Ro˜45 Å). […] Inhibition of Aβ1-42 assembly is observed as the absence or attenuation of fluorescein quenching.
FRET and FP assays are performed in 384-well Corning Non-Binding Surface, black, opaque microtiter plates, and the assay buffer consists of 50 mM MOPS-Tris (pH 8.0) with 100 mM MgCl2. The assay volume, containing 0.2 μM FITC-Aβ(1-42) and 0.8 μM Aβ(1-42), is 50 μl and the temperature is 37° C. ADDL assembly is monitored on a Tecan GENios Pro plate reader, exciting at a wavelength of 485 nm and detecting emission at a wavelength of 515 nm. Kinetic traces are collected by recording fluorescence intensity and polarization readings every five minutes over about three to about a six-hour time course. […] Positive control reactions contain all buffer components in the absence of added small molecule or antibody reagents. To test for ADDL assembly inhibition, the non-peptidic compound was incubated with the peptide mixture at six concentrations from about 30 μM decreasing to about 0.05 μM.
Test Compound A appears as compound 7 in Table 1.

[2] = cited from earlier work; remark: listed apart in the source
Aβ1-42 ADDLs = biological target: T1, Aβ1-42 ADDLs (Homo sapiens, UniProt P05067); assay: Alternating Lever Cyclic Ratio (ALCR) rat model; assay type: in vivo; details: for Approach Errors Mean / Perseveration Errors Mean: base line error rate equalized to 1.00; for error rates versus baseline: given alone
T1 construct: Synthetic Aβ1-42 powder was dissolved in 1,1,1,3,3,3 hexafluorisopropanol (HFIP); host or cells: chemically synthesised peptide
Method: Preparations of Aβ1-42 ADDLs and a potential therapeutic compounds under the Alternating Lever Cyclic Ratio (ALCR) rat model of AD were tested. This highly sensitive model has been able to detect cognitive deficits due to direct injection of cell-derived Aβ oligomers into rat brain. In this study, a direct injection of ADDLs made from synthetic Aβ1-42 and a putative therapeutic compound under the ALCR procedure were tested.
The ALCR test has proven to be much more sensitive than previously published methods for measuring drug effects on cognitive function. In this task, rats must learn a complex sequence of lever-pressing requirements in order to earn food reinforcement in a two-lever experimental chamber. Subjects must alternate between two levers by switching to the other lever after pressing the first lever enough to get food reward. The exact number of presses required for each food reward changes, first increasing from 2 responses per food pellet up to 56 presses per food pellet, then decreasing back to 2 responses per pellet. Intermediate values were based on the quadratic function, x^2−x. One cycle was an entire ascending and descending sequence of these lever press requirements (e.g., 2, 6, 12, 20, 30, 42, 56, 56, 42, 30, 20, 12, 6, and 2 presses per food reward). Six such full cycles were presented during each daily session.
Synthetic Aβ1-42 powder was dissolved in 1,1,1,3,3,3 hexafluorisopropanol (HFIP) to afford a solution of Aβ1-42 in HFIP of about 1 mM and allowed to incubate at ambient temperature for about 1 h. The resulting solution was chilled on ice for about 5-10 min, then aliquoted into eppendorf tubes to provide about 50 μl of solution per tube. The tubes were then placed in a chemical fume hood and allowed to stand overnight to allow the HFIP to evaporate under a slow stream of nitrogen. To removed final traces of HFIP, the tubes were subjected to two SpeedVac cycles of 15 min at room temperature and about 15 to 25 in Hg of vacuum. The resulting films of monomerized Aβ1-42 peptide were stored over desiccant at −80° C. until used.
A tube of monomerized Aβ1-42 peptide was warmed to room temperature and the Aβ1-42 peptide was dissolved in anhydrous DMSO to afford a peptide stock DMSO solution containing about 10 μM to about 100 μM Aβ1-42 peptide in DMSO.
2 μl of a 20 mM stock solution of test compound in anhydrous DMSO is added to 998 μl of neural basal media (phenol red free, Gibco 12348-017) to give a compound neural basal media solution containing 40 μM of test compound in neural basal media.
For the Aβ1-42 peptide only treatment, peptide stock DMSO solution is added to 37° C. neural basal to obtain the requisite Aβ1-42 peptide monomer concentration, provided that the maximum concentration of DMSO is 1% or less, and the tube is vortexed for 30 to 60 seconds, spun down briefly in a microfuge and incubated at 37° C. for 15 min prior to the start of injections.
For the Aβ1-42 peptide plus test compound treatment, peptide stock DMSO solution is added to 37° C. compound neural basal media solution to obtain the requisite Aβ1-42 peptide monomer concentration, provided that the maximum concentration of DMSO is 1% or less, and the tube is vortexed for 30 to 36 seconds, spun down briefly in a microfuge and incubated at 37° C. for 15 min prior to the start of injections.
For control injections, compound neural basal media solution is incubated at 37° C. for 15 min prior to the start of injections.
Rats: Rats were trained under ALCR until their error rates were stable. Once the rats were placed upon the final ALCR procedure, training sessions were conducted 7 days each week until the end of the study.
Surgery: All rats received a single 28 ga cannula, which was permanently affixed to the skull, and aimed at the lateral ventricle. Half the rats received cannula in the right ventricle and half received cannula in the left ventricle. Rats were allowed 5 days to recover from surgery before training resumed. […]

[3] = compound combined with Aβ1-42 ADDLs
[4] = injectate alone, 20 μl via ventricular cannula, tested about 3 hours after injection

Sequence of Aβ1-42 (P05067 672-713 limits assumed): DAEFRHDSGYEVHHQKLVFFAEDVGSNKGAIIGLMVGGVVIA
T1 sequence (P05067 672-713 limits assumed): as above

NCCCS(=O)(=O)O [Alzhemed, 3-amino-1-propanesulfonic acid]
cognitive decline ([1]; 20 month open-label extension of Phase II trial, patients with mild AD): slowed cognitive decline in some patients
efficacy ([1]; blinded phase of the Phase II study): no efficacy was observed
blocking of Aβ1-42 monomer assembly into Aβ oligomers (Aβ1-42; standard FRET assay conditions of Example 1, FIG. 2): inability of the compound Alzhemed to inhibit Aβ1-42 monomer assembly into Aβ oligomers

Oc1c(I)cc(Cl)c2cccnc12 [Clioquinol]
patients' cognitive ability ([2]; compared to untreated patients): stabilize the patients' cognitive ability
Aβ1-42 levels in plasma ([2]; patients' plasma): lower Aβ1-42 levels

Cn1nccc1C(=O)C/C(=N/NC(=O)c1ccccc1O)C(F)(F)F [Compound 1, 2-Hydroxy-benzoic acid [3-oxo-3-(1-methyl-1H-pyrazol-5-yl)-1-trifluoromethyl-prop-(Z)-ylidene]-hydrazide]
IC50 (Aβ1-42): 17.7 µM

CCOC(=O)c1c(NC(=O)C(=O)N/N=C/c2ccccc2O)sc2c1CCC(C)C2 (centres unmarked) [Compound 7, 2-{[1-(2-Hydroxyphenyl)-meth-(E)-ylidene-hydrazinooxalyl]-amino}-6-methyl-4,5,6,7-tetrahydro-benzo[b]thiophene-3-carboxylic acid ethyl ester]
inhibition of Aβ1-42 oligomer assembly (Aβ1-42; 1 mM Aβ1-42 total monomer, 100 mM MgCl2, compound 0.05 to 3 mM (so in the source), FIG. 1): dose dependent inhibition of Aβ1-42 oligomer assembly

COc1ccc(NC(=O)C(=O)N2N=C(CCC(C)C)CC2(O)C(F)(F)F)cc1 (centres unmarked) [Compound 21, 2-(5-hydroxy-3-isopentyl-5-(trifluoromethyl)-4,5-dihydro-1H-pyrazol-1-yl)-N-(4-methoxyphenyl)-2-oxoacetamide]
IC50 (Aβ1-42): 6.4 µM

O=C(N/N=C/c1c(O)ccc2ccccc12)c1ccccc1O [Compound 24, (E)-2-hydroxy-N′-((2-hydroxynaphthalen-1-yl)methylene)benzohydrazide]
effect on ADDL-induced increase in Perseveration Errors (Aβ1-42 ADDLs; combined with the requisite concentration of Aβ1-42 ADDLs): eliminated the increase in Perseveration Errors
Approach Errors Mean (Aβ1-42 ADDLs; [3]): 1.00
Perseveration Errors Mean (Aβ1-42 ADDLs; [3]): 0.92
error rates versus baseline (Aβ1-42 ADDLs): did not increase error rates
Approach Errors Mean (Aβ1-42 ADDLs; [4]): 0.96
Perseveration Errors Mean (Aβ1-42 ADDLs; [4]): 0.95

Aβ1-42 ADDLs: ADDLs made from synthetic Aβ1-42; soluble, oligomeric, globular, non-fibrillar, neurotoxic Aβ1-42 peptides [reference compound]
error rates versus baseline (Aβ1-42 ADDLs): significantly increased Perseveration Error rate
Approach Errors Mean (Aβ1-42 ADDLs; [4]): 1.02
Perseveration Errors Mean (Aβ1-42 ADDLs; [4]): 1.33
